# Paper PMC10823514, “Target Identification of a Class of Pyrazolone Protein Aggregation Inhibitor Therapeutics for Amyotrophic Lateral Sclerosis” (ACS Central Science, 2023)
# Entries after “also recorded” stand apart in the source; their conditions may differ. Where two headings read alike, the source gives them in different places.
# Tests used:
# [1] = test system: PC12 SOD1^G93A cells; conditions: neuroprotection against MG-132-induced SOD1^G93A toxicity in PC12 cells, cited from earlier work
# [2] = set-up: method as in PMID 23828940; conditions: cell lysate, original CETSA protocol; cited from earlier work
# [3] = biological target: T1, 25 kDa protein band in PC12 SOD1^G93A cells (Rattus norvegicus, UniProt P62260); assay: Competition of PRAPP photoaffinity labeling of the 25 kDa band in PC12-SOD1^G93A cells; type: binding; conditions: for concentration-dependent disappearance of the 25 kDa protein band in competition with PRAPP: scenario 1
# T1 construct: we identified a 25 kDa covalently modified protein band in the PC12 SOD1^G93A cell line; endogenous in cells; host or cells: PC12-SOD1^G93A cells (live-cell UV photolabeling, then lysis)
# T1 sequence (P62260 1-255): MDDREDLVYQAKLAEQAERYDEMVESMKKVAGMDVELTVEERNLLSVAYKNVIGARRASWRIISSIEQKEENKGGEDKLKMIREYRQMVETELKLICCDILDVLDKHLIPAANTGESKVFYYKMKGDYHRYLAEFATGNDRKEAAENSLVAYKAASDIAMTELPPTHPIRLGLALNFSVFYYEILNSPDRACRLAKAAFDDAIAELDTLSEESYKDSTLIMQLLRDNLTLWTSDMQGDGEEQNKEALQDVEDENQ
# Experimental: PC12-SOD1^G93A cells were cultured and grown to 90% confluency (in 6-well plates) and washed once with PBS followed by the addition of serum medium containing the appropriate analyte at the indicated concentrations. Three incubation scenarios were studied (at 37 °C): Scenario 1) 12 h preincubation with PRAPP in the absence of MG-132; Scenario 2) 12 h preincubation with PRAPP in the absence of MG-132 followed by an additional 24 h incubation (control); and Scenario 3) 12 h preincubation with PRAPP followed by the addition of MG-132 (100 nM) and an additional 24 h incubation. After incubation, the medium was discarded and cells were washed with PBS (1 × 300 μL). Fresh serum-free medium was added, and the cells were irradiated with UV light (312 nm, 120 V, 60 Hz, 0.2 A [Spectroline model EB-160C], distance ∼4 cm) for 15 min. The medium was removed, cells were washed with PBS (2 × 500 μL), and 200 μL of lysis buffer containing Tris HCl (25 mM, pH 7.6), NaCl (150 mM), 1% NP40, 1% sodium deoxycholate, 0.1% SDS, and protease inhibitor cocktail (Sigma-Aldrich, 1:100 v/v) was added to each well. Complete lysis was observed by a microscope after 10 min at 4 °C with agitation. Each lysate was centrifuged at 4 °C for 5 min at 13,000 rpm, and the resulting supernatant was concentrated with a centrifugal filter (Amicon Ultra Centrifugal Filters 3K cutoff, Millipore), normalized to 1.0 mg/mL by the Bradford assay, and analyzed immediately or stored at −80 °C for subsequent analysis.
# In a darkened (wrapped with aluminum foil) Eppendorf tube, each lysate (30 μL [30 μg]) was incubated with 10 μL of the freshly prepared “click” premix containing CuSO4 (5 mM), sodium ascorbate (5 mM), TBTA (200 μM), and N3–Alexa-647 (50 μM) were added to PBS (50 mM, pH 7.4). The corresponding final concentrations within the lysate click incubation were: CuSO4 (1.25 mM), sodium ascorbate (1.25 mM), TBTA (50 μM), and N3–Alexa-647 (12.5 μM). The mixture was vortexed briefly and incubated for 1.5 h at 37 °C in the dark. NuPAGE LDS sample loading buffer (4 × 13 μL) was added, and the mixture was denatured in boiling water for 10 min. SDS-PAGE was performed on Novex Bis-Tris gel 4–12% with MES SDS running buffer (90 V constant for 30 min followed by 100 V for 90 min; load volume = 25 μL). Protein standards that gave appropriate visible and fluorescent bands for our application included the BioRad Precision Plus All Blue Protein Standard and Novex Pre-Stained Protein Standard. In-gel fluorescence was monitored (excitation λ = 635 nm; emission λ = 670 nm) using a Typhoon 9400 (GE Healthcare) fluorimager. Densitometric analysis and image refinement were carried out as needed using ImageJ software (NIH, open source). The contrast and brightness of images were modified using ImageJ and/or Microsoft Word to enhance visualization for publication purposes.
# [4] = test system: 25 kDa covalently modified band in HAP1 cells; assay: Photoaffinity labeling with HAP1 wild-type and Hsp27 knockout cells; type: binding; conditions: wild-type (WT) HAP1 cells
# Description: First, we conducted photoaffinity labeling studies with wild-type (WT) HAP1 cells to verify the existence of the 25 kDa covalent modification that we observed in PC12 cells.
# Figure 7 Photoaffinity Labeling Experiments with HAP1 cells. […] The nonspecific background modifications remain unchanged with increasing concentration of P3, further confirming the 25 kDa covalently modified band as a true target; (B) comparison of the photoaffinity labeling experiments with HAP1 wild-type (WT) cells and Hsp27 knockout (KO) cells at 15 μM PRAPP concentration.
# [5] = test system: PC12 SOD1^G93A cells; assay: Neuroprotection against MG-132-induced toxicity in PC12 cells expressing mutant SOD1^G93A (calcein-AM viability); type: cell-based; conditions: Rattus norvegicus, PC-12, MG-132-induced toxicity, inactive photoreactive controls, read-out: EC50
# Experimental: With this information in hand, we implemented a phenotypic drug discovery approach to identify a novel therapeutic for treating ALS. The study employed a rat PC12 cell-based assay that expresses SOD1^G93A mutation for screening a chemical library of more than 50,000 compounds to identify promising hits (Figure 1 compounds 3 and 4). The hits are based on attenuating proteasome inhibitor MG-132-induced SOD1^G93A cellular toxicity.
# Viability EC50 values were determined according to the previously reported assay procedure.[43] Briefly, PC12 cells were seeded at 15,000 cells/well in 96-well plates, and the medium was changed to remove the doxycycline 4 days prior to compound addition. Compounds were assayed in 12-point dose–response experiments to determine the potency and efficacy. The highest compound concentration tested was 32 μM, which was decreased by half with each subsequent dose. After a 24 h incubation with the analytes, MG-132 (400 nM) was added and the cells were incubated at 37 °C for 24 h. The cells were washed twice with PBS. Calcein-AM was added at a final concentration of 1 μM for 20 min at room temperature, and the fluorescence intensity was read in a POLARstar fluorescence plate reader (BMG). EC50 values were determined by standardizing fluorescent signal to DMSO treated controls. […] The presented data represent the mean average of duplicate experiments.
# [6] = biological target: T2, 14-3-3-E (Homo sapiens, UniProt P62258); assay: Fluorescent thermal shift assay (FTSA) with 14-3-3-E; type: binding; conditions: SYPRO orange
# T2 construct: His-tag (TEV-cleavable) (cleaved yes); host or cells: E. coli (BL21)
# T2 sequence (P62258 1-255): T1 sequence (P62260 1-255)
# Experimental: His-tagged 14-3-3-E, B, and H plasmids were purchased from Addgene (plasmid ID# 31562, 39128, and 38814, respectively). E. coli (BL21) were transformed with extracted plasmids via heat shock and plated on selected media. Individual colonies were selected, grown, and sequenced to confirm gene presence. 1 L cultures were grown to an OD600 of 0.6 at 37 °C and 220 rpm. Protein expression was induced with 1 mM IPTG and expressed for 12 h at 100 rpm and room temperature (approximately 25 °C). Cells were spun down at 4000 rpm for 15 min at 4 °C and resuspended in lysis buffer containing 50 mM Tris (7.4), 150 mM NaCl, 0.08% DDM, 5 mM imidazole, and 5% glycerol (with an EDTA-free complete mini protease inhibitor cocktail). Cells were lysed via sonication, and the lysate was separated from cell debris by centrifugation at 15,000 rpm, 4 °C, for 45 min. The His-tagged protein was purified using QIAGEN Ni-NTA superflow columns, and the His-tag was removed with TEV protease. His-tag-removed proteins were further purified by size exclusion chromatography. His tag removal and size exclusion chromatography purification were done at the Northwestern University Protein Production core. 14-3-3-Q and 14-3-3-G proteins were purchased from Abchem (catalog numbers ab85270 and ab53869, respectively).
# All of the FTSA experiments were conducted in HEPES buffer (60 mM HEPES, 150 mM NaCl, pH 7.4). A DMSO balanced 8-point dilution series of the compound in HEPES buffer was prepared in a 96-well assay plate (200, 100, 50, 25, 12.5, 6.25, 3.125, and 0 μM). Then, a 5 μL volume of the dilution series was transferred to a 384-well PCR plate using a multichannel pipet, and the plate was centrifuged at 1000 rpm for 2 min (the plate was covered with an adhesive aluminum seal). The protein sample was premixed at a concentration of 0.04 μg/μL with a 5X concentration of SYPRO orange in HEPES buffer, and a 5 μL aliquot was added to the compound wells. The plate was covered with an optical adhesive seal and was shaken for 2 min, followed by centrifugation at 1000 rpm for 2 min. The thermal scan was performed from 20 to 90 °C with a temperature gradient of 0.5 °C/min. The fluorescence was measured on a Bio-Rad CFX384 real-time PCR instrument.
# [7] = hits and leads of the authors' earlier work, read-out: EC50
smiles,measurement,setting,value
O=C1CC(=O)CC(c2ccc(F)cc2)C1 [compound 3],EC50,[1]; [7],800 nM
CN(Cc1cnc2nc(N)nc(N)c2n1)c1ccc(C(=O)N[C@@H](CCC(=O)O)C(=O)O)cc1 [methotrexate],drug concentration of maximum response in ITDR CETSA,[2],100 to 250 µM
CN(Cc1cc(Cl)cc(Cl)c1)Cc1cc(=O)[nH][nH]1 [P3],EC50,"[1]; leads of the authors' earlier work, read-out: EC50 (NP = neuroprotection)",400 nM
same,competitor to PRAPP ratio at complete disappearance of the band,[3]; 30 μM PRAPP,32
same,EC50,"[3]; 30 μM PRAPP, scenario 1, n = 2, read-out: EC50 for the competition with PRAPP (25 kDa band intensity)",26700 nM
same,"competition of PRAPP labeling, band 1 around 25 kDa",[4],concentration-dependent disappearance
"C#CCNCc1c(F)c(F)c(N=[N+]=[N-])c(F)c1F [IPC2, N-(4-Azido-2,3,5,6-tetrafluorobenzyl)prop-2-yn-1-amine]",EC50,[5],> 16000 nM
"CC1=NN(c2ccccc2)C(=O)C1 [edaravone, reference compound]",concentration-dependent disappearance of the 25 kDa protein band in competition with PRAPP,[3]; 30 μM PRAPP,did not show a quantifiable concentration-dependent disappearance
"C#CCN(Cc1c(F)c(F)c(N=[N+]=[N-])c(F)c1F)Cc1cc(=O)n(C(C)=O)n1C(C)=O [IPC1, 1,1′-(5-(((4-Azido-2,3,5,6-tetrafluorobenzyl)(prop-2-yn-1-yl)amino)methyl)-3-oxo-1H-pyrazole-1,2(3H)-diyl)bis(ethan-1-one)]",EC50,[5],> 16000 nM
Cc1nc2ccc(CN(C)c3ccc(C(=O)N[C@@H](CCC(=O)O)C(=O)O)s3)cc2c(=O)[nH]1 [raltitrexed],drug concentration of maximum response in ITDR CETSA,[2],100 to 250 µM
CC(Oc1cc(C(F)(F)F)cc(C(F)(F)F)c1)C1CC(=O)CC(=O)C1 (stereo not drawn) [P1],EC50,[1]; [7],300 nM
same,Tm shift (ΔTm),[6],did not show a Tm shift
same,concentration-dependent disappearance of the 25 kDa protein band in competition with PRAPP,[3]; 30 μM PRAPP,not compete out the 25 kDa covalently modified band in a concentration -dependent manner; also recorded: did not show a quantifiable concentration-dependent disappearance
same,25 kDa band intensity in competition with PRAPP,[3]; 480 μM P1 concentration,slight reduction of the 25 kDa band intensity
Cc1cc(SCc2cc(=O)[nH][nH]2)c(C)cc1Cl [compound 4],EC50,[1]; [7],400 nM
